According to ChEMBL document CHEMBL3885881, “DrugMatrix”:

Species: Rattus norvegicus
Assay: DrugMatrix - Regimen: Daily Repeat
Format: toxicity, organism-based, Sprague-Dawley
Parameters: regimen Daily Repeat, gender Male, age 6-8 weeks
Conditions: in vivo, po, route oral GAVAGE, vehicle .5 % CMC; for ABSOLUTE BASOPHIL / ABSOLUTE EOSINOPHIL / ABSOLUTE LYMPHOCYTE / ABSOLUTE MONOCYTE / ABSOLUTE SEGMENTED NEUTROPHIL / BASOPHIL / EOSINOPHIL / ERYTHROCYTE COUNT / HEMATOCRIT / HEMOGLOBIN / LEUKOCYTE COUNT / LYMPHOCYTE / MEAN CORPUSCULAR HEMOGLOBIN / MEAN CORPUSCULAR HEMOGLOBIN CONCENTRATION / MEAN CORPUSCULAR VOLUME / MONOCYTE / NEUTROPHIL / NUCLEATED RED BLOOD CELLS / PLATELET COUNT: tissue Blood; for ALANINE AMINOTRANSFERASE / ALBUMIN / ALKALINE PHOSPHATASE / ASPARTATE AMINOTRANSFERASE / BLOOD UREA NITROGEN / CARBON DIOXIDE / CHLORIDE / CHOLESTEROL / CREATINE PHOSPHOKINASE / CREATININE / GLUCOSE / LACTATE DEHYDROGENASE / LIPASE / PHOSPHORUS / POTASSIUM / SODIUM / TOTAL BILIRUBIN / TOTAL PROTEIN / URIC ACID: tissue Plasma
[1] = 30 mg/kg, 72 h, dose level Low, time 3 day
[2] = 30 mg/kg, 120 h, dose level Low, time 5 day
[3] = 1200 mg/kg, 72 h, dose level High, time 3 day
[4] = 1200 mg/kg, 120 h, dose level High, time 5 day

CN(Cc1cc(Br)cc(Br)c1N)C1CCCCC1 [BROMHEXINE]
ABSOLUTE BASOPHIL [1]: 0 CELLS/uL
ABSOLUTE EOSINOPHIL [1]: 52.67 CELLS/uL
ABSOLUTE LYMPHOCYTE [1]: 13749.67 CELLS/uL
ABSOLUTE MONOCYTE [1]: 46.33 CELLS/uL
ABSOLUTE SEGMENTED NEUTROPHIL [1]: 484.67 CELLS/uL
BASOPHIL [1]: 0%
EOSINOPHIL [1]: 0.33%
ERYTHROCYTE COUNT [1]: 5.57 x10E6/uL
HEMATOCRIT [1]: 34.67%
HEMOGLOBIN [1]: 13.63 G/DL
LEUKOCYTE COUNT [1]: 14.33 x10E3/uL
LYMPHOCYTE [1]: 96%
MEAN CORPUSCULAR HEMOGLOBIN [1]: 24.5 pg
MEAN CORPUSCULAR HEMOGLOBIN CONCENTRATION [1]: 39.37 G/DL
MEAN CORPUSCULAR VOLUME [1]: 62.23 fL
MONOCYTE [1]: 0.33%
NEUTROPHIL [1]: 3.33%
NUCLEATED RED BLOOD CELLS [1]: 0.33 /100WBC
PLATELET COUNT [1]: 1277.67 x10E3/uL
ALANINE AMINOTRANSFERASE [1]: 49 u/L
ALBUMIN [1]: 4.13 G/DL
ALKALINE PHOSPHATASE [1]: 406.33 u/L
ASPARTATE AMINOTRANSFERASE [1]: 85 u/L
BLOOD UREA NITROGEN [1]: 15 mg/dL
CARBON DIOXIDE [1]: 23 mmol/L
CHLORIDE [1]: 103.67 MEQ/L
CHOLESTEROL [1]: 65.67 mg/dL
CREATINE PHOSPHOKINASE [1]: 317.67 u/L
CREATININE [1]: 0.18 mg/dL
GLUCOSE [1]: 158 mg/dL
LACTATE DEHYDROGENASE [1]: 370.33 u/L
LIPASE [1]: 9 u/L
PHOSPHORUS [1]: 12.77 mg/dL
POTASSIUM [1]: 6.95 MEQ/L
SODIUM [1]: 145.43 MEQ/L
TOTAL BILIRUBIN [1]: 0.2 mg/dL
TOTAL PROTEIN [1]: 5.77 G/DL
URIC ACID [1]: 1.67 mg/dL
ABSOLUTE BASOPHIL [2]: 0 CELLS/uL
ABSOLUTE EOSINOPHIL [2]: 128.67 CELLS/uL
ABSOLUTE LYMPHOCYTE [2]: 16146.33 CELLS/uL
ABSOLUTE MONOCYTE [2]: 429 CELLS/uL
ABSOLUTE SEGMENTED NEUTROPHIL [2]: 1529.33 CELLS/uL
BASOPHIL [2]: 0%
EOSINOPHIL [2]: 0.67%
ERYTHROCYTE COUNT [2]: 5.35 x10E6/uL
HEMATOCRIT [2]: 33.4%
HEMOGLOBIN [2]: 13.33 G/DL
LEUKOCYTE COUNT [2]: 18.23 x10E3/uL
LYMPHOCYTE [2]: 88.67%
MEAN CORPUSCULAR HEMOGLOBIN [2]: 24.97 pg
MEAN CORPUSCULAR HEMOGLOBIN CONCENTRATION [2]: 39.9 G/DL
MEAN CORPUSCULAR VOLUME [2]: 62.5 fL
MONOCYTE [2]: 2.33%
NEUTROPHIL [2]: 8.33%
NUCLEATED RED BLOOD CELLS [2]: 0 /100WBC
PLATELET COUNT [2]: 1294.67 x10E3/uL
ALANINE AMINOTRANSFERASE [2]: 51.33 u/L
ALBUMIN [2]: 4.27 G/DL
ALKALINE PHOSPHATASE [2]: 334 u/L
ASPARTATE AMINOTRANSFERASE [2]: 80.67 u/L
BLOOD UREA NITROGEN [2]: 15.67 mg/dL
CARBON DIOXIDE [2]: 24.67 mmol/L
CHLORIDE [2]: 103.67 MEQ/L
CHOLESTEROL [2]: 75.33 mg/dL
CREATINE PHOSPHOKINASE [2]: 235.67 u/L
CREATININE [2]: 0.15 mg/dL
GLUCOSE [2]: 144.33 mg/dL
LACTATE DEHYDROGENASE [2]: 206.67 u/L
LIPASE [2]: 8 u/L
PHOSPHORUS [2]: 12.53 mg/dL
POTASSIUM [2]: 6.56 MEQ/L
SODIUM [2]: 145.97 MEQ/L
TOTAL BILIRUBIN [2]: 0.2 mg/dL
TOTAL PROTEIN [2]: 5.87 G/DL
URIC ACID [2]: 1.43 mg/dL
ABSOLUTE BASOPHIL [3]: 0 CELLS/uL
ABSOLUTE EOSINOPHIL [3]: 0 CELLS/uL
ABSOLUTE LYMPHOCYTE [3]: 11402.67 CELLS/uL
ABSOLUTE MONOCYTE [3]: 42 CELLS/uL
ABSOLUTE SEGMENTED NEUTROPHIL [3]: 922 CELLS/uL
BASOPHIL [3]: 0%
EOSINOPHIL [3]: 0%
ERYTHROCYTE COUNT [3]: 5.83 x10E6/uL
HEMATOCRIT [3]: 36.2%
HEMOGLOBIN [3]: 14.53 G/DL
LEUKOCYTE COUNT [3]: 12.37 x10E3/uL
LYMPHOCYTE [3]: 92.33%
MEAN CORPUSCULAR HEMOGLOBIN [3]: 24.93 pg
MEAN CORPUSCULAR HEMOGLOBIN CONCENTRATION [3]: 40.13 G/DL
MEAN CORPUSCULAR VOLUME [3]: 62.07 fL
MONOCYTE [3]: 0.33%
NEUTROPHIL [3]: 7.33%
NUCLEATED RED BLOOD CELLS [3]: 0 /100WBC
PLATELET COUNT [3]: 1700.33 x10E3/uL
ALANINE AMINOTRANSFERASE [3]: 65.67 u/L
ALBUMIN [3]: 4.33 G/DL
ALKALINE PHOSPHATASE [3]: 494.33 u/L
ASPARTATE AMINOTRANSFERASE [3]: 82.67 u/L
BLOOD UREA NITROGEN [3]: 12 mg/dL
CARBON DIOXIDE [3]: 21.33 mmol/L
CHLORIDE [3]: 102.5 MEQ/L
CHOLESTEROL [3]: 83.67 mg/dL
CREATINE PHOSPHOKINASE [3]: 249.33 u/L
CREATININE [3]: 0.17 mg/dL
GLUCOSE [3]: 162.67 mg/dL
LACTATE DEHYDROGENASE [3]: 125.67 u/L
LIPASE [3]: 13 u/L
PHOSPHORUS [3]: 12.63 mg/dL
POTASSIUM [3]: 5.48 MEQ/L
SODIUM [3]: 143.2 MEQ/L
TOTAL BILIRUBIN [3]: 0.17 mg/dL
TOTAL PROTEIN [3]: 5.8 G/DL
URIC ACID [3]: 1.93 mg/dL
ABSOLUTE BASOPHIL [4]: 0 CELLS/uL
ABSOLUTE EOSINOPHIL [4]: 0 CELLS/uL
ABSOLUTE LYMPHOCYTE [4]: 22503 CELLS/uL
ABSOLUTE MONOCYTE [4]: 323.33 CELLS/uL
ABSOLUTE SEGMENTED NEUTROPHIL [4]: 1973.67 CELLS/uL
BASOPHIL [4]: 0%
EOSINOPHIL [4]: 0%
ERYTHROCYTE COUNT [4]: 6.56 x10E6/uL
HEMATOCRIT [4]: 39.57%
HEMOGLOBIN [4]: 16.23 G/DL
LEUKOCYTE COUNT [4]: 24.8 x10E3/uL
LYMPHOCYTE [4]: 90%
MEAN CORPUSCULAR HEMOGLOBIN [4]: 24.77 pg
MEAN CORPUSCULAR HEMOGLOBIN CONCENTRATION [4]: 41.07 G/DL
MEAN CORPUSCULAR VOLUME [4]: 60.37 fL
MONOCYTE [4]: 1.33%
NEUTROPHIL [4]: 8.67%
NUCLEATED RED BLOOD CELLS [4]: 0 /100WBC
PLATELET COUNT [4]: 1311.67 x10E3/uL
ALANINE AMINOTRANSFERASE [4]: 66.67 u/L
ALBUMIN [4]: 4.5 G/DL
ALKALINE PHOSPHATASE [4]: 440.33 u/L
ASPARTATE AMINOTRANSFERASE [4]: 86 u/L
BLOOD UREA NITROGEN [4]: 19.67 mg/dL
CARBON DIOXIDE [4]: 25 mmol/L
CHLORIDE [4]: 102 MEQ/L
CHOLESTEROL [4]: 90.67 mg/dL
CREATINE PHOSPHOKINASE [4]: 343.67 u/L
CREATININE [4]: 0.2 mg/dL
GLUCOSE [4]: 132 mg/dL
LACTATE DEHYDROGENASE [4]: 171.33 u/L
LIPASE [4]: 9.33 u/L
PHOSPHORUS [4]: 11.03 mg/dL
POTASSIUM [4]: 6.65 MEQ/L
SODIUM [4]: 144.3 MEQ/L
TOTAL BILIRUBIN [4]: 0.17 mg/dL
TOTAL PROTEIN [4]: 6.17 G/DL
URIC ACID [4]: 1.33 mg/dL
